Measured values: patent US20200022995A1, “Novel Immunodulating Small Molecules” (AyuVis Research, Inc., priority 2018, published 2020)

Key:
THP-1 cells = test: Monocyte differentiation, phagocytosis and intracellular killing of Pseudomonas aeruginosa in THP-1 cells; type: cell-based, human
Description: Two of these compounds 8 and 32 stimulated monocyte differentiation into macrophages, increased phagocytosis of Pseudomonas aeruginosa (FIG. 18) and increased intracellular killing of bacteria (FIG. 19). These compounds have potential to be used as vaccine adjuvants and in combination with existing antibiotic for prophylactic treatment such as in cystic fibrosis patients.

TLR7/8 = test: IL-1β ELISA in hPBMC, alone or with TLR7/8 ligand CL075; type: cell-based, human
Description: Compound 8 modulates the TLR7/8 activities in a concentration dependent manner.

hPBMC = test: Cytotoxicity in hPBMC (MTT); type: cell-based, human; conditions: 0.1, 1.0, 10, 100 and 1000 μM, 24 h
Method: The cells were treated with compounds and incubated for 24 h. Cell viability was assessed using MTT cell proliferation kit (Promega). All the compounds were not toxic to hPMBC (FIG. 12).

HUVECs = test: Anti-angiogenic activity, VEGF induced tube formation in HUVECs; type: cell-based, human; conditions: VEGF 100 ng/mL
Method: Selected TLR2/4 antagonist compounds 2, 6, 7, 8, 14, 17 and 32 were evaluated for anti-angiogenic activity using the Tube Formation kit (Cat #3470-096-K). VEGF (100 ng/mL) was used as positive control. These compounds have potential applications in diseases associated with pathological angiogenesis such as solid tumor, […], diabetic retinopathy as well as AMD.

[1] = system: P. aeruginosa (ATCC-10145 GFP) infected skin wounds; test: Murine skin wound infection with P. aeruginosa; type: in vivo, C57BL/6 mice
Method: Five groups of C57BL/6 mice (8-10 weeks old, n=4) were wounded on the dorsal surface. 25 ul containing 10^6 CFU/mL P. aeruginosa in a PBS suspension were pipetted onto the wound and allowed to absorb for at least 3 min. […] Subsequently and for the next 13 days, infected wounds were treated each alternate day with colistin, or with test compounds.

[2] = system: hyperoxia-induced lung injury in mice; test: Hyperoxia induced ALI model; type: in vivo, C57BL/6 mice; conditions: IP, 10 mg/kg
Method: Male C57BL/6 mice (Jackson Laboratories,) 12-15 weeks old, 25-28 gms, housed up to 5 per cage were used.
Hyperoxia induced ALI model: The ARDS model consists of exposing adult mice in 100% oxygen for 48 h followed by injecting with test compounds. Adult mice (N=5) were housed in plexi chamber with a constant and continuous supply of 100% oxygen for 48 h. […] The mice were sacrificed after 48 h to harvest lung tissues and collect (BAL) fluid.

neonatal pups with BPD [3] = test: Hyperoxia mouse model of BPD (newborn pups); type: in vivo
Description: Neonatal mice and humans undergo similar stages of lung development but differ with respect to the duration of each stage and its temporal relationship to gestational age. The lungs of the mouse born at term are in the saccular stage and are surfactant sufficient; this can be considered somewhat akin to a human preterm neonate in the same stage of lung development that has been exposed to a full complement of antenatal steroids (which is known to enhance surfactant production). In terms of mimicking the human condition, the most successful hyperoxia models are those that limit exposure to hyperoxia to the saccular stage of pulmonary development. The mouse BPD model involves exposing newborn mice (postnatal day 1 or PN1) to 100% oxygen till PN4 followed by recovery in room air (RA) for another 10 days.
After the recovery period, their lungs were harvested and processed for quantitative PCR, western blotting, histopathology and ELISA.
Each of the compounds 3, 8 or 32 encapsulated in PLGA nanoparticles referred as 3NP, 8NP and 32NP was instilled intranasally (IN) as nanosuspension to newborn pups on PN2 and PN4 at different doses (FIG. 28). After the recovery period, their lungs were harvested and processed for quantitative PCR, western blotting and histopathology and ELISA.
BPD is characterized by large simplified alveoli, inflammation, increased cell death, decreased cell proliferation, dysmorphic capillary configuration, and variable interstitial cellularity and/or fibroproliferation. […] This is determined by measuring the alveolar chord length, septal thickness and radial alveolar count (RAC). In BPD, the alveolar area increases which is characterized by increase in the diameter of the alveolar sacs, the septa become thickened (thus interfering in gaseous exchange) and the RAC, a parameter used to assess the complexity of terminal respiratory unit by pulmonologists, decreases as a result of arrested lung development.

neonatal pups with BPD [4] = test: Hyperoxia mouse model of BPD (newborn pups); type: in vivo; remark: listed apart in the source
TLR4 = TLR4 (Homo sapiens, UniProt O00206); test: TLR4 inhibitory and activating activity in THP-1 cells; type: cell-based; parameters: endogenous in cells; host or cells: THP-1 monocytes, PMA-stimulated
Sequence of TLR4 (O00206 24-839): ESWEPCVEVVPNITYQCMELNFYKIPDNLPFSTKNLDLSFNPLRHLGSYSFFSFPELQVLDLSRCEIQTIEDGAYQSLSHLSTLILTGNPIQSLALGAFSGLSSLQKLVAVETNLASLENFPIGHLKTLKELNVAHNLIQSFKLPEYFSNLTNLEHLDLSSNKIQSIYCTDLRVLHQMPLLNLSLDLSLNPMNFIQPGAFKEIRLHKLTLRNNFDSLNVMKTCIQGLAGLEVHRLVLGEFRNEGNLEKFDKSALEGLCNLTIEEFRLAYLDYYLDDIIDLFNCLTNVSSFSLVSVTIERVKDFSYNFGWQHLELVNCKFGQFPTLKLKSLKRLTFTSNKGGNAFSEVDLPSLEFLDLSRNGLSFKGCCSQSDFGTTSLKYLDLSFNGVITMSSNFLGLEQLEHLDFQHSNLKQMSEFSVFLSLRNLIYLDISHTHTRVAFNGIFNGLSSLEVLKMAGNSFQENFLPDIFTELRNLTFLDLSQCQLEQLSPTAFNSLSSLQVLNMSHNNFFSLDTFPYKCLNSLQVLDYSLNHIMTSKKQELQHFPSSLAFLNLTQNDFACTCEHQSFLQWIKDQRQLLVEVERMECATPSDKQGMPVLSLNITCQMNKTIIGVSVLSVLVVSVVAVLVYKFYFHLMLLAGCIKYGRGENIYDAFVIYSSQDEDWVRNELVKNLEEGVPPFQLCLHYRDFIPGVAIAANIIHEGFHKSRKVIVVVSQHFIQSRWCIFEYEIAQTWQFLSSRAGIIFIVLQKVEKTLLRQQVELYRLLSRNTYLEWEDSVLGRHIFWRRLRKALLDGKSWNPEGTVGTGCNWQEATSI

SMILES: CC(=O)N[C@H]1[C@H](Oc2ccc([N+](=O)[O-])cc2)O[C@H](CO)[C@@H](O)[C@@H]1O [Compound 8, p-Nitrophenyl 2-acetamido-2-deoxy-β-D-glucopyranoside]
- monocyte differentiation into macrophages (THP-1 cells): stimulated
- intracellular killing of bacteria (THP-1 cells; Pseudomonas aeruginosa, THP-1 cells): increased
- phagocytosis of Pseudomonas aeruginosa (THP-1 cells; THP-1 cells): increased
- IL-1β protein level (TLR7/8; 0.1 μM to <1 μM, alone or with CL075, hPBMC, 24 h, ELISA): downregulate
- production of IL-1β (TLR7/8; 1.0 μM, alone and with CL075, hPBMC): significantly stimulated
- cytotoxicity in hPBMC (hPBMC): not toxic
- VEGF induced tube formation (HUVECs): significantly deceased
- wound closure at day 13 ([1]; 25 μl Colistin 4 μg/ml or compound 100 μg/ml, each alternate day): complete closure
- bacterial numbers versus untreated control ([1]; 13 days post infection): statistically significant reduction
- re-epithelialization and granulation tissue versus controls ([1]; H&E histology, day 13 post-injury): borderline non-significant
- CFU in tissues ([1]; topical, 100 μM, C57BL6 mice): decreased
- closure of P. aeruginosa infected skin wounds ([1]; topical, 100 μM, C57BL6 mice): effectively closed
- protection against hyperoxia induced lung injury ([2]; 100% oxygen 48 h): significant protection
- hyperoxia-induced lung inflammation ([2]; mice): ameliorated
- anti-inflammatory cytokine IL-10 (neonatal pups with BPD [3]; 10 mg/kg, ELISA): increase
- inflammatory cytokines and chemokines (MIP-2, MCP-1, IL-17, IFN-Y, TNF-α, IL-1β, and IL-6) (neonatal pups with BPD [3]; 10 mg/kg, ELISA): decreases
- lung injury in neonatal pups with BPD (neonatal pups with BPD [3]; mouse model of BPD): prevent lung injury
- TLR4 inhibition in an in vivo model system (neonatal pups with BPD [3]; neonatal pups with BPD): inhibit TLR4
- lung architecture (neonatal pups with BPD [3]; saline IV and nanosuspension IN): restored
- hyperoxia induced BPD in mouse pups (neonatal pups with BPD [4]; IP and IV, saline solution, 5 mg/kg or 10 mg/kg on PN2 and PN4): prevent
- chord length, septal thickness and radial alveolar count of mouse lungs (neonatal pups with BPD [4]; IP injection): improvement
- inflammatory cytokines in lung tissue and serum (neonatal pups with BPD [4]; after injection): decreased
- TLR2/4 antagonist or TLR4 agonist activity as shown in Table-1 (TLR4): potent TLR2/4 antagonists
